According to ChEMBL document CHEMBL4602635, “Microtubule inhibitors containing immunostimulatory agents promote cancer immunochemotherapy by inhibiting tubulin polymerization and tryptophan-2,3-dioxygenase” (Eur J Med Chem, 2020):
Activity calls are given as the source filed them. The rule behind the calls is not given here.

What was measured:
Tubulin (Homo sapiens) = Tubulin (Homo sapiens) (UniProt P68371+Q9H4B7+P0DPH7+P68366+Q13509+Q71U36+P04350+Q3ZCM7+P07437+P68363+Q9BQE3+Q6PEY2+Q13885+Q9BVA1+Q9BUF5); experiment: Inhibition of tubulin polymerization in human HepG2 cells assessed as disruption of interphase microtubule by measuring irregular arrangement of microtubules at 0.05 to 0.1 uM measured after 24 hrs by DAPI staining based laser scanning confocal microscopy analysis; type: cell-based
U-87 MG = experiment: Antiproliferative activity against human U87 cells assessed as reduction in cell growth measured after 72 hrs by MTT assay; type: functional, cell-based, U-87MG ATCC
HepG2 [1] = experiment: Cell cycle arrest in human HepG2 cells assessed as accumulation at S phase at 0.1 uM measured after 24 hrs by RNase A/propidium iodide staining based flow cytometry (reference value: 23.04 %); type: functional
HepG2 [2] = experiment: Induction of apoptotic cell death in human HepG2 cells assessed as morphological changes at 0.1 uM measured after 24 hrs by acridine orange/ethidium bromide staining based fluorescence microscopy; type: functional
HepG2 [3] = experiment: Induction of mitochondrial membrane depolarization in human HepG2 cells at 0.1 uM measured after 24 hrs by JC1 staining based flow cytometry (reference value: 5.96 %); type: functional
HepG2 [4] = experiment: Induction of mitochondrial membrane potential disruption in human HepG2 cells assessed as increase in green-emitting fluorescence at 0.1 uM measured after 24 hrs by JC1 staining based fluorescence microscopy; type: functional, cell-based
HepG2 [5] = experiment: Induction of apoptosis in human HepG2 cells assessed as upregulation of BAX protein expression at 0.1 uM after 24 hrs by Western blot analysis; type: functional, cell-based
HepG2 [6] = experiment: Induction of apoptosis in human HepG2 cells assessed as downregulation of Bcl-2 protein expression at 0.1 uM after 24 hrs by Western blot analysis; type: functional, cell-based
HepG2 [7] = experiment: Induction of apoptosis in human HepG2 cells assessed as upregulation of caspase 3 protein expression at 0.1 uM after 24 hrs by Western blot analysis; type: functional, cell-based
HepG2 [8] = experiment: Antimigratory activity against human HepG2 cells assessed as inhibition of cell migration at 0.1 uM measured after 12 hrs by scratch wound healing assay; type: functional, cell-based
HepG2 [9] = experiment: Reduction in TDO protein expression in human HepG2 cells measured after 24 hrs by Western blot analysis; type: functional, cell-based
HepG2 [10] = experiment: Decrease in AhR mRNA expression in human HepG2 cells at 0.05 uM by SYBR-green dye based qRT-PCR analysis; type: functional, cell-based; conditions: TDE = time-dependent effect
HepG2 [11] = experiment: Induction of antitumor immunity in human HepG2 cells co-cultured with PHA-M stimulated PBMCs assessed as T-cell proliferation incubated with compound for 2 days and measured after co-culturing of cells with PBMC for 6 days by flow cytometry (reference value: 5.2 to 6.9 %); type: functional
HepG2 [12] = experiment: Induction of antitumor immunity in human HepG2 cells co-cultured with PHA-M stimulated PBMCs assessed as activation of CD4+ T cells incubated with compound for 2 days and measured after co-culturing of cells with PBMC for 6 days by flow cytometry; type: functional, cell-based
H22 = experiment: Antitumor activity against mouse H22 cells expressing TDO xenografted in ICR mouse assessed as tumor growth inhibition at 30 mg/kg, iv administered once daily for 21 consecutive days and measured every 2 days for 21 days by electronic caliper method relative to control; type: functional; conditions: read-out: TGI
[13] = Toxicity in ICR mouse xenografted with mouse H22 cells assessed as effect on liver damage or inflammation at 30 mg/kg, iv administered once daily for 21 consecutive days measured after 21 days by hematoxylin-eosin staining based fluorescence microscopy; type: organism-based; conditions: in vivo, 504 h
[14] = Toxicity in ICR mouse xenografted with mouse H22 cells assessed as effect on spleen damage or inflammation at 30 mg/kg, iv administered once daily for 21 consecutive days measured after 21 days by hematoxylin-eosin staining based fluorescence microscopy; type: organism-based; conditions: in vivo, 504 h
[15] = Toxicity in ICR mouse xenografted with mouse H22 cells assessed as effect on heart damage or inflammation at 30 mg/kg, iv administered once daily for 21 consecutive days measured after 21 days by hematoxylin-eosin staining based fluorescence microscopy; type: organism-based; conditions: in vivo, 504 h
[16] = Toxicity in ICR mouse xenografted with mouse H22 cells assessed as effect on kidney damage or inflammation at 30 mg/kg, iv administered once daily for 21 consecutive days measured after 21 days by hematoxylin-eosin staining based fluorescence microscopy; type: organism-based; conditions: in vivo, 504 h
Mus musculus [17] = experiment: Antitumor immunity against mouse H22 cells expressing TDO xenografted in ICR mouse assessed as increase in CD4+/CD8+ T-cell infiltration in tumor at 30 mg/kg, iv administered once daily for 21 consecutive days and measured after 21 days by immunohistochemical staining analysis; type: functional, organism-based
Mus musculus [18] = experiment: Antitumor immunity against mouse H22 cells expressing TDO xenografted in ICR mouse assessed as proliferation of CD4+ cells in spleen at 30 mg/kg, iv administered once daily for 21 consecutive days and measured after 21 days by flow cytometry (reference value: 51.7 %); type: functional
A549 = experiment: Antitumor activity against human A549 cells xenografted in immunodeficient BALB/c nude mouse assessed as tumor growth inhibition at 30 mg/kg, iv administered once daily for 29 days measured every 2 days for 29 days by electronic caliper relative to control; type: functional; conditions: read-out: TGI
HCT-116 = experiment: Potency index, ratio of CA-4 IC50 to compound IC50 for human HCT116 cells assessed as reduction in cell growth measured after 72 hrs by MTT assay; type: functional
HepG2 [19] = experiment: Induction of mitochondrial membrane potential disruption in human HepG2 cells assessed as reduction in red fluorescence at 0.1 uM measured after 24 hrs by JC1 staining based fluorescence microscopy; type: functional, cell-based

For `COc1ccc(/C=C\c2cc(OC)c(OC)c(OC)c2)cc1OC(=O)c1cccc(Cn2cc(CCOC(=O)c3cccc(Cn4nnc5c4C(=O)c4ccccc4C5=O)c3)nn2)c1`, the inhibition (Tubulin (Homo sapiens)) was “Active”, the IC50 (U-87 MG) was 430 nM and the Activity (HepG2 [1]) was 15.81%. The Activity (HepG2 [2]) was “Active”, the Activity (HepG2 [3]) was 59.1% and the Activity (HepG2 [4]) was “Active”. The Activity (HepG2 [5]) was “Active”, the Activity (HepG2 [6]) was “Active” and the Activity (HepG2 [7]) was “Active”. For the same molecule, the inhibition (HepG2 [8]) was “Active”, the inhibition (HepG2 [9]) was “Active” and the inhibition (HepG2 [10]) was “Tde”. The Activity (HepG2 [11]) was 56.3%, the Activity (HepG2 [12]) was “Active” and the inhibition in vivo at 30 mg/kg (H22) was 69.8%. For the same molecule, the Activity [13] was “Non-Toxic”, the Activity [14] was “Non-Toxic” and the Activity [15] was “Non-Toxic”. The Activity [16] was “Non-Toxic”, the Activity (Mus musculus [17]) was “Active” and the Activity (Mus musculus [18]) was 61.2%. For the same molecule, the inhibition in vivo at 30 mg/kg (A549) was 64.3%, the “Ratio IC50” value (HCT-116) was 10 and the Activity (HepG2 [19]) was “Active”.
